Marks after values point to notes of the source that are not given here.
Key:
[1] = molecular target: FcRn (Homo sapiens, UniProt P55899); assay: Binding to FcRn; details: compared with human IgG1
[2] = system: DLL4-mediated Notch-1 activation; assay: Inhibition of DLL4-mediated Notch-1 activation; assay type: cell-based
[3] = molecular target: human DLL4 (Homo sapiens, UniProt Q9NR61); assay: Binding affinity to DLL4
[4] = system: HCT-116 human colon xenograft tumors; assay: HCT-116 colon xenograft model; assay type: in vivo, female SCID mice
Description: The effect of anti-DLL4-VEGF DVD-Igs (ABT-165) in combination with chemotherapy on tumor growth was evaluated on HCT-116 human colon xenograft tumors in female SCID mice. Briefly, 5×10^6 cells were inoculated subcutaneously into the right hind flank. Tumors were allowed to establish for 14 days, at which point tumor volume was determined using electronic caliper measurements using the formula: L×W^2/2. Mice were allocated into treatment groups (n=9 per group) so that each cohort had equivalent mean tumor volume of 192 mm^3 prior to initiation of therapy. Animals were dosed with 5-fluorouracil (5-FU), folinic acid (leucovorin), irinotecan, anti-VEGF mAb (AB014), and/or anti-DLL4-VEGF DVD-Ig (ABT-165) at the dose and schedule in Table 4. An anti-tetanus toxoid mAb (AB095) was used as a non-targeting isotype control. Tumor volume was measured twice a week for the duration of the experiment.

[5] = system: human VEGF; assay: Binding affinity to VEGF
[6] = system: human peripheral blood cells (PBC) from normal donors; assay: Cytokine release by human peripheral blood cells; assay type: cell-based; details: within expected range of negative control IgG1 antibodies

Sequence of human VEGF (P15692 207-320 limits assumed): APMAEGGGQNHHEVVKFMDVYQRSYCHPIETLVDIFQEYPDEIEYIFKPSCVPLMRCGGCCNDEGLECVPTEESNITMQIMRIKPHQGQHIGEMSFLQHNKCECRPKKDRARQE

affinity to DLL4 [3]: nanomolar affinities | affinity to VEGF [5]: nanomolar affinities
Substance: ABT-165: dual-variable domain humanized immunoglobulin with dual specificity for DLL4 and VEGF; light chain SEQ ID No. 15, heavy chain SEQ ID No. 16
binding to FcRn [1]: pH-dependent binding to FcRn within the expected range of human IgG1 | inhibition of DLL4-mediated Notch-1 activation [2]: potent inhibition | efficacy compared to anti-VEGF monoclonal antibody (alone or each with FOLFIRI) ([4]; colon cancer xenograft model, FIG. 1): superior efficacy | % TGI (percent tumor growth inhibition = 100 − (T/C × 100)) ([4]; day 26 post size match, mean tumor volume vs treatment control group, dose and regimen as in Table 4, n=9 per group): 67* % | ability to stimulate cytokine release [6]: low ability

Source: patent US20220211846A1, “ABT-165 IN COMBINATION WITH FOLINIC ACID, 5-FLUOROURACIL, AND IRINOTECAN FOR THE TREATMENT OF CANCERS” (AbbVie Biotherapeutics Inc., priority 2017, published 2022)
